Several values for one entry are separate records, joined by “and”; a condition that tells them apart may be missing. Equal entries are not always repeated.
System: 188146-221-R-J1-PDC complex spheroid viability
Assay: Anticancer human tumor 188146-221-R-J1-PDC patient-derived colon adenocarcinoma cell line growth inhibition [POLQ]
Conditions: for viability, T/C: stronger effect = lower value
Procedure: Multicellular complex tumor spheroid response to Polymerase (POL) inhibitors (novobiocin, ART-558, RP6685) in combination with a variety of drugs and investigational agents in selected tumor cell lines
The POL inhibitors (novobiocin, ART-558, and RP6685) were evaluated both individually and in combination with standard of care and investigational anticancer small molecules within a complex spheroid model of solid tumors. . Complex spheroids include a stromal component modeled by human endothelial cells (HUVEC) and fibroblasts modeled by human mesenchymal stem cells (MSCs). The concentration ranges selected for each drug and investigational agent were based upon clinically achievable concentrations if the clinical Cmax of the agent was known.
Compounds. The drugs and investigational agents: novobiocin (NSC847541), ART-558 (NSC835418), RP-6685 (NSC848927), peposertib (NSC802822), ceralasertib (NSC780249), elimusertib (NSC800525), camonsertib (NSC841442), AZD-1390 (NSC803789), olaparib (NSC753686), talazoparib (NSC767125), rucaparib (NSC756644), sotorasib (NSC818433), MRTX-1133 (NSC836407), SN-38 (NSC673596), topotecan (NSC609699), epotoside (NSC141540), doxorubicin (NSC123127), gemcitabine (NSC613327), 5-fluorouracil (NSC19893), paclitaxel (NSC125973), vemurafenib (NSC761431), MSA-2 (NSC828583), SN-011 (NSC837082), adavosertib (NSC754352), prexasertib (NSC758257), carboplatin (NSC241240) and oxaliplatin (NSC266046), were obtained from the National Cancer Institute (NCI) Developmental Therapeutics Program Chemical Repository (21). The FDA-approved anticancer drug set is available from the Developmental Therapeutics Program at https://dtp.cancer.gov/organization/dscb/obtaining/. […] The stock solutions were prepared in dimethyl sulfoxide (DMSO, Sigma-Aldrich, St. Louis, MO, cat. D2650), except for the platinum compounds which were prepared in saline (Quality Biological, Gaithersburg, MD, cat. 114-055-101), at 800-fold the tested concentration and stored at -70 degrees C prior to their use. All drugs and investigational agents were tested over a range starting from a high concentration at or near the clinical Cmax and decreasing in half-log increments. If the clinical Cmax for an agent had not been determined, the highest concentration tested was 10 microM, except for SN-38, which was tested at a high concentration of 1 microM.
Cell Culture. All cells were maintained in an incubator at 37 degrees C and 5% CO2 with 95% humidity. The PDC lines were cultured according to standard operating procedures established by the NCI PDMR (https://pdmr.cancer.gov). Table 3 of the manuscript, lists the cell lines along with the number of the three cell types plated to form the mct-spheroids and media for tumor cell growth. After thawing, all PDC lines, except 997537-175-T-J1-PDC and 415267-285-R-J2-PDC, were cultured in Matrigel-coated flasks prepared with a working solution of 1X Ham's F-12 nutrient mix, without supplementation (Thermo Fisher Scientific, cat. 11765054), 100 U/mL penicillin-streptomycin (Thermo Fisher Scientific, cat. 15140122), and 2.5% Matrigel (Corning Inc., Corning, NY, cat. 354248) for the first three passages. The two PDC lines 997537-175-T-J1-PDC and 415267-285-R-J2-PDC were cultured on uncoated flasks. The 857933-349-R-J2-PDC line was cultured in 6C/Colon 1B media containing advanced DMEM/F-12 (Thermo Fisher Scientific, cat. 12634028), 10 mM HEPES (Thermo Fisher Scientific, cat. 15630080), 1X GlutaMAX supplement (Thermo Fisher Scientific, cat. 35050061), 0.1 mg/mL primocin (InvivoGen, San Diego, CA, cat. ant-pm-2), 10% defined fetal bovine serum, heat inactivated (HyClone Laboratories Inc., Logan, UT, cat. SH30070.03HI), 50% L-WRN conditioned media (ATCC, cat. CRL-3276), 1.25 mM N-Acetyl-L-cysteine (Sigma-Aldrich, cat. A9165), 10 mM nicotinamide (Sigma-Aldrich, cat. N0636), 1X B-27 supplement (Thermo Fisher Scientific, cat. 17504044), 1X N-2 supplement (Thermo Fisher Scientific, cat. […]

[1] = curve of first compound, second compound 0.0316 µM
[2] = curve of first compound, second compound 0.1 µM
[3] = curve of first compound, second compound 0.316 µM
[4] = curve of first compound, second compound 1 µM
[5] = curve of first compound, second compound 3.16 µM
[6] = curve of first compound, second compound 10 µM
[7] = second compound 0.0316 µM, first compound 0.0316 µM
[8] = second compound 0.0316 µM, first compound 0.1 µM
[9] = second compound 0.1 µM, first compound 0.0316 µM
[10] = second compound 0.1 µM, first compound 0.1 µM
[11] = second compound 0.316 µM, first compound 0.0316 µM
[12] = second compound 0.316 µM, first compound 0.1 µM
[13] = second compound 1 µM, first compound 0.0316 µM
[14] = second compound 1 µM, first compound 0.1 µM
[15] = second compound 3.16 µM, first compound 0.0316 µM
[16] = second compound 3.16 µM, first compound 0.1 µM
[17] = second compound 10 µM, first compound 0.0316 µM
[18] = second compound 10 µM, first compound 0.1 µM
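Also: spheroids exposed to compounds for seven days.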
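For viability, T/C in this document: 100% = DMSO vehicle control viability.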

In the case of `Cn1ncnc1[C@H]1c2n[nH]c(=O)c3cc(F)cc(c23)N[C@@H]1c1ccc(F)cc1` + Cc1cccc(N(C)C(=O)C2C(O)CCN2c2nc(C)cc(C(F)(F)F)c2C#N)c1, the IC50 [1] is reported as > 100 nM, the IC50 [2] is reported as > 100 nM and the IC50 [3] is reported as > 100 nM. The IC50 [4] was > 100 nM, the IC50 [5] was > 100 nM and the IC50 [6] was > 100 nM. It also gave a viability, T/C (second compound 0.0316 µM, first compound 0.000316 µM) of 97.2%, a viability, T/C (second compound 0.0316 µM, first compound 0.001 µM) of 97.4% and a viability, T/C (second compound 0.0316 µM, first compound 0.00316 µM) of 91.8%. It also gave a viability, T/C (second compound 0.0316 µM, first compound 0.01 µM) of 98.3%, a viability, T/C [7] of 99.3% and a viability, T/C [8] of 88%. The viability, T/C (second compound 0.1 µM, first compound 0.000316 µM) was 106%, the viability, T/C (second compound 0.1 µM, first compound 0.001 µM) was 107% and the viability, T/C (second compound 0.1 µM, first compound 0.00316 µM) was 101%. It also gave a viability, T/C (second compound 0.1 µM, first compound 0.01 µM) of 84.8%, a viability, T/C [9] of 89.9% and a viability, T/C [10] of 103%. The viability, T/C (second compound 0.316 µM, first compound 0.000316 µM) was 101%, the viability, T/C (second compound 0.316 µM, first compound 0.001 µM) was 104% and the viability, T/C (second compound 0.316 µM, first compound 0.00316 µM) was 101%. The viability, T/C (second compound 0.316 µM, first compound 0.01 µM) was 101%, the viability, T/C [11] was 90.8% and the viability, T/C [12] was 104%. It also gave a viability, T/C (second compound 1 µM, first compound 0.000316 µM) of 107%, a viability, T/C (second compound 1 µM, first compound 0.001 µM) of 99.6% and a viability, T/C (second compound 1 µM, first compound 0.00316 µM) of 105%. For the same compound, the viability, T/C (second compound 1 µM, first compound 0.01 µM) was 102%, the viability, T/C [13] was 89% and the viability, T/C [14] was 93.5%. It also gave a viability, T/C (second compound 3.16 µM, first compound 0.000316 µM) of 100%, a viability, T/C (second compound 3.16 µM, first compound 0.001 µM) of 105% and a viability, T/C (second compound 3.16 µM, first compound 0.00316 µM) of 95.4%. For the same compound, the viability, T/C (second compound 3.16 µM, first compound 0.01 µM) was 90%, the viability, T/C [15] was 95.4% and the viability, T/C [16] was 94.2%. The viability, T/C (second compound 10 µM, first compound 0.000316 µM) was 96.4%, the viability, T/C (second compound 10 µM, first compound 0.001 µM) was 91.8% and the viability, T/C (second compound 10 µM, first compound 0.00316 µM) was 90.6%. It also gave a viability, T/C (second compound 10 µM, first compound 0.01 µM) of 87.8%, a viability, T/C [17] of 90.8% and a viability, T/C [18] of 94.6%.

`C=CC(=O)N1CCN(c2nc(=O)n(-c3c(C)ccnc3C(C)C)c3nc(-c4c(O)cccc4F)c(F)cc23)C(C)C1` (stereo unspecified) + Nc1ccc(C#CCN(C(=O)Cc2ncc(C(F)(F)F)cc2C(F)(F)F)c2ccc(F)cc2)nn1 was tested, and the IC50 [1] was > 10000 nM, the IC50 [2] was > 10000 nM and the IC50 [3] was > 10000 nM. The IC50 [4] was > 10000 nM, the IC50 [5] was > 10000 nM and the IC50 [6] was > 10000 nM. For the same compound, the viability, T/C [7] was 104%, the viability, T/C [8] was 107% and the viability, T/C (second compound 0.0316 µM, first compound 0.316 µM) was 103%. For the same compound, the viability, T/C (second compound 0.0316 µM, first compound 1 µM) was 96.5%, the viability, T/C (second compound 0.0316 µM, first compound 3.16 µM) was 104% and the viability, T/C (second compound 0.0316 µM, first compound 10 µM) was 84.9%. For the same compound, the viability, T/C [9] was 95.7%, the viability, T/C [10] was 108% and the viability, T/C (second compound 0.1 µM, first compound 0.316 µM) was 101%. The viability, T/C (second compound 0.1 µM, first compound 1 µM) was 102%, the viability, T/C (second compound 0.1 µM, first compound 3.16 µM) was 120% and the viability, T/C (second compound 0.1 µM, first compound 10 µM) was 85.6%. The viability, T/C [11] was 104%, the viability, T/C [12] was 99.2% and the viability, T/C (second compound 0.316 µM, first compound 0.316 µM) was 109%. It also gave a viability, T/C (second compound 0.316 µM, first compound 1 µM) of 82.2%, a viability, T/C (second compound 0.316 µM, first compound 3.16 µM) of 104% and a viability, T/C (second compound 0.316 µM, first compound 10 µM) of 78%. The viability, T/C [13] was 108%, the viability, T/C [14] was 91.6% and the viability, T/C (second compound 1 µM, first compound 0.316 µM) was 92.6%. For the same compound, the viability, T/C (second compound 1 µM, first compound 1 µM) was 113%, the viability, T/C (second compound 1 µM, first compound 3.16 µM) was 97.4% and the viability, T/C (second compound 1 µM, first compound 10 µM) was 103%. For the same compound, the viability, T/C [15] was 96.8%, the viability, T/C [16] was 108% and the viability, T/C (second compound 3.16 µM, first compound 0.316 µM) was 92.4%. It also gave a viability, T/C (second compound 3.16 µM, first compound 1 µM) of 104%, a viability, T/C (second compound 3.16 µM, first compound 3.16 µM) of 97.5% and a viability, T/C (second compound 3.16 µM, first compound 10 µM) of 101%. The viability, T/C [17] was 101%, the viability, T/C [18] was 104% and the viability, T/C (second compound 10 µM, first compound 0.316 µM) was 107%. For the same compound, the viability, T/C (second compound 10 µM, first compound 1 µM) was 107%, the viability, T/C (second compound 10 µM, first compound 3.16 µM) was 98.1% and the viability, T/C (second compound 10 µM, first compound 10 µM) was 96.4%.

`COc1cccc2c1C(=O)c1c(O)c3c(c(O)c1C2=O)CC(O)(C(=O)CO)CC3OC1CC(N)C(O)C(C)O1` (stereo unspecified) was tested, and the viability, T/C (compound 0.0316 µM) was 78% and 71.8% and 78.2%, the viability, T/C (compound 0.1 µM) was 60.5% and 38.2% and 54.6% and the viability, T/C (compound 0.316 µM) was 32.8% and 29.6% and 32.9%. For the same compound, the viability, T/C (compound 1 µM) was 8.2% and 10% and 11.1%, the viability, T/C (compound 3.16 µM) was 1.38% and 0.34% and 0.33% and the viability, T/C (compound 10 µM) was 0.57% and 0.47% and 0.49%. The IC50 (curve of compound) was 155 nM and 73.6 nM and 132 nM.

Reference: PubChem BioAssay AID1963851 (Molecular Pharmacology Branch, DTP, NCI, 2024)
